In patent US10919911B2, “Tricyclic ASK1 inhibitors” (Terns, Inc., priority 2018, dated 2021):

These molecules were tested against ASK1 kinase (Homo sapiens (Human), UniProt Q99683) (assay: RBC Kinase Assay (33P-ATP radiometric, myelin basic protein substrate)). Details: 20 ng ASK1 kinase, MBP substrate, 120 min at room temperature, 1% DMSO.
ASK1 kinase, sequence (Q99683 whole entry): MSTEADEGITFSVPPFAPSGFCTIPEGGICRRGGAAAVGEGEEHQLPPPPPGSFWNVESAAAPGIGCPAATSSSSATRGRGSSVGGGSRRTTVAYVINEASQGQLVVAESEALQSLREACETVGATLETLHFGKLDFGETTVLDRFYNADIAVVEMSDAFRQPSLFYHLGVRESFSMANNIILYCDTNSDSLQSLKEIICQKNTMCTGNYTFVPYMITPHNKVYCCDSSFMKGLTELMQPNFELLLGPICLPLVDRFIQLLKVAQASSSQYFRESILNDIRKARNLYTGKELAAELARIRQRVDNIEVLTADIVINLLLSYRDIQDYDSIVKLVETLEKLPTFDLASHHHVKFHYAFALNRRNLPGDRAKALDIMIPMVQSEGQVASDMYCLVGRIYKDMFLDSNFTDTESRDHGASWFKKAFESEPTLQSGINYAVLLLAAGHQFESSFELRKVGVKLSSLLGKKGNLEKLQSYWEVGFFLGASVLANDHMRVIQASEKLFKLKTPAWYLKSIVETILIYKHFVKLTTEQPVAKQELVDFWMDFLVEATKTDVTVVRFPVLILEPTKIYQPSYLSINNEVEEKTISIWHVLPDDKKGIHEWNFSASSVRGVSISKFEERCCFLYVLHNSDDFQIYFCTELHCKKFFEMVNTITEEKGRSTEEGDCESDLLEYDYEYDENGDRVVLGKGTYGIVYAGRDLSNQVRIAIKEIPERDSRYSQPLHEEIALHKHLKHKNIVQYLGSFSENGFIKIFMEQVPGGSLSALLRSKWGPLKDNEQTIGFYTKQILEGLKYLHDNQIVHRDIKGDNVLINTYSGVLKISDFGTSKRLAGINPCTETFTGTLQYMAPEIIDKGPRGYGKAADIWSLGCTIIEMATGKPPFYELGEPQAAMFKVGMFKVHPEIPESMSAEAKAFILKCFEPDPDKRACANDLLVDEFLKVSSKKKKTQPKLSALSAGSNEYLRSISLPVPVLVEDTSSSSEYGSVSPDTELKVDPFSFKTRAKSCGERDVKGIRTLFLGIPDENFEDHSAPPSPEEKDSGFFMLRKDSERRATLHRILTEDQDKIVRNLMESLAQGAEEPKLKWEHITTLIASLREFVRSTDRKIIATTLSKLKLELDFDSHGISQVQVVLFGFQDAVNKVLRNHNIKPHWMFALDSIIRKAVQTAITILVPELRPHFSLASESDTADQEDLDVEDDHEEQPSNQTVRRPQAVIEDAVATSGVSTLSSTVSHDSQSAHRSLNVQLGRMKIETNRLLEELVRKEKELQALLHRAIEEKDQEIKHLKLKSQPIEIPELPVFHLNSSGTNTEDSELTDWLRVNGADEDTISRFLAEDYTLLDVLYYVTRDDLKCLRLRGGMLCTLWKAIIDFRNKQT
Assay type: biochemical
Description: Example B1. RBC Kinase Assay Protocol
Base Reaction buffer: 20 mM Hepes (pH 7.5), 10 mM MgCl2, 1 mM EGTA, 0.02% Brij35, 0.02 mg/ml BSA, 0.1 mM Na3VO4, 2 mM DTT, and 1% DMSO were used for the assay.
Myelin base protein (MPB) was prepared in freshly prepared Base Reaction Buffer. 20 ng of ASK1 kinase was delivered into the substrate solution and gently mixed. Compounds in DMSO were delivered into the kinase reaction mixture (final DMSO concentration 1%). Commercially available 33P-ATP was delivered into the reaction mixture to initiate the reaction. The kinase reaction was incubated for 120 min. at room temperature. Reactions were spotted onto P81 ion exchange paper (Whatman #3698-915). Filters were washed extensively in 0.75% Phosphoric acid. Radioactivity on filters was read, and IC50 values were determined.
An IC50 of 5.8 nM was found for `Cc1cc(F)c(C(=O)Nc2cccc3c2OC[C@@H](C)n2cnnc2-3)cc1-n1cnc(C2CC2)c1` [Example 1, (R)-5-(4-cyclopropyl-1H-imidazol-1-yl)-2-fluoro-4-methyl-N-(5-methyl-5,6-dihydrobenzo[f][1,2,4]triazolo[4,3-d][1,4]oxazepin-8-yl)benzamide] in this work.
An IC50 of 9.1 nM was found for `Cc1cc(F)c(C(=O)Nc2cccc3c2OC[C@H](C)n2cnnc2-3)cc1-n1cnc(C2CC2)c1` [Example 2, (S)-5-(4-cyclopropyl-1H-imidazol-1-yl)-2-fluoro-4-methyl-N-(5-methyl-5,6-dihydrobenzo[f][1,2,4]triazolo[4,3-d][1,4]oxazepin-8-yl)benzamide] in this work.
An IC50 of 5.7 nM was found for `Cc1cc(F)c(C(=O)Nc2cccc3c2OC[C@H](C)n2nnnc2-3)cc1-n1cnc(C2CC2)c1` [Example 3, (S)-5-(4-cyclopropyl-1H-imidazol-1-yl)-2-fluoro-4-methyl-N-(5-methyl-5,6-dihydrobenzo[f]tetrazolo[1,5-d][1,4]oxazepin-8-yl)benzamide] in this work.
An IC50 of 5.7 nM was found for `C[C@@H]1COc2c(NC(=O)c3cc(-n4cnc(C5CC5)c4)ccn3)cccc2-c2nnnn21` [Example 4, (R)-4-(4-cyclopropyl-1H-imidazol-1-yl)-N-(5-methyl-5,6-dihydrobenzo[f]tetrazolo[1,5-d][1,4]oxazepin-8-yl)picolinamide] in this work.
An IC50 of 5.8 nM was found for `Cc1cc(F)c(C(=O)Nc2cccc3c2OC[C@@H](C)n2nnnc2-3)cc1-n1cnc(C2CC2)c1` [Example 5, (R)-5-(4-cyclopropyl-1H-imidazol-1-yl)-2-fluoro-4-methyl-N-(5-methyl-5,6-dihydrobenzo[f]tetrazolo[1,5-d][1,4]oxazepin-8-yl)benzamide] in this work.
An IC50 of 7.7 nM was found for `C[C@H]1COc2c(NC(=O)c3cc(-n4cnc(C5CC5)c4)ccn3)cccc2-c2nnnn21` [Example 6, (S)-4-(4-cyclopropyl-1H-imidazol-1-yl)-N-(5-methyl-5,6-dihydrobenzo[f]tetrazolo[1,5-d][1,4]oxazepin-8-yl)picolinamide] in this work.
An IC50 of 8.5 nM was found for `Cc1cc(F)c(C(=O)Nc2cccc3c2OCCn2cnnc2-3)cc1-n1cnc(C2CC2)c1` [Example 7, 5-(4-cyclopropyl-1H-imidazol-1-yl)-N-(5,6-dihydrobenzo[f][1,2,4]triazolo[4,3-d][1,4]oxazepin-8-yl)-2-fluoro-4-methylbenzamide] in this work.
An IC50 of 11.7 nM was found for `Cc1cc(F)c(C(=O)Nc2cccc3c2OC[C@@H](C2CC2)n2cnnc2-3)cc1-n1cnc(C2CC2)c1` [Example 8, (R)-5-(4-cyclopropyl-1H-imidazol-1-yl)-N-(5-cyclopropyl-5,6-dihydrobenzo[f][1,2,4]triazolo[4,3-d][1,4]oxazepin-8-yl)-2-fluoro-4-methylbenzamide] in this work.
An IC50 of 5.6 nM was found for `Cc1cc(F)c(C(=O)Nc2cccc3c2OCC(C)(C)n2cnnc2-3)cc1-n1cnc(C2CC2)c1` [Example 9, 5-(4-cyclopropyl-1H-imidazol-1-yl)-N-(5,5-dimethyl-5,6-dihydrobenzo[f][1,2,4]triazolo[4,3-d][1,4]oxazepin-8-yl)-2-fluoro-4-methylbenzamide] in this work.
An IC50 of 0.5 nM was found for `Cc1cc(F)c(C(=O)Nc2cccc3c2OCC2(CC2)n2cnnc2-3)cc1-n1cnc(C2CC2)c1` [Example 10, 5-(4-cyclopropyl-1H-imidazol-1-yl)-2-fluoro-4-methyl-N-(6H-spiro[benzo[f][1,2,4]triazolo[4,3-d][1,4]oxazepine-5,1′-cyclopropan]-8-yl)benzamide] in this work.
An IC50 of 5.4 nM was found for `C[C@@H]1COc2c(NC(=O)c3cc(-n4cnc(C5CC5)c4)ccn3)cccc2-c2nncn21` [Example 11, (R)-4-(4-cyclopropyl-1H-imidazol-1-yl)-N-(5-methyl-5,6-dihydrobenzo[f][1,2,4]triazolo[4,3-d][1,4]oxazepin-8-yl)picolinamide] in this work.
An IC50 of 4.7 nM was found for `Cc1cc(F)c(C(=O)Nc2cccc3c2OC[C@@H](C2CC2)n2nnnc2-3)cc1-n1cnc(C2CC2)c1` [Example 12, (R)-5-(4-cyclopropyl-1H-imidazol-1-yl)-N-(5-cyclopropyl-5,6-dihydrobenzo[f]tetrazolo[1,5-d][1,4]oxazepin-8-yl)-2-fluoro-4-methylbenzamide] in this work.
An IC50 of 5.2 nM was found for `Cc1cc(F)c(C(=O)Nc2cccc3c2OCC(C)(C)n2nnnc2-3)cc1-n1cnc(C2CC2)c1` [Example 13, 5-(4-cyclopropyl-1H-imidazol-1-yl)-N-(5,5-dimethyl-5,6-dihydrobenzo[f]tetrazolo[1,5-d][1,4]oxazepin-8-yl)-2-fluoro-4-methylbenzamide] in this work.
An IC50 of 4.2 nM was found for `Cc1cc(F)c(C(=O)Nc2cccc3c2OCC2(CC2)n2nnnc2-3)cc1-n1cnc(C2CC2)c1` [Example 14, 5-(4-cyclopropyl-1H-imidazol-1-yl)-2-fluoro-4-methyl-N-(6H-spiro[benzo[f]tetrazolo[1,5-d][1,4]oxazepine-5,1′-cyclopropan]-8-yl)benzamide] in this work.
An IC50 of 5.8 nM was found for `O=C(Nc1cccc2c1OCC(CO)n1cnnc1-2)c1cc(-n2cnc(C3CC3)c2)ccn1` (stereo not shown) [Example 15, 4-(4-cyclopropyl-1H-imidazol-1-yl)-N-(5-(hydroxymethyl)-5,6-dihydrobenzo[f][1,2,4]triazolo[4,3-d][1,4]oxazepin-8-yl)picolinamide] in this work.
An IC50 of 5.2 nM was found for `Cc1cc(F)c(C(=O)Nc2cccc3c2OC[C@H](CO)n2cnnc2-3)cc1-n1cnc(C2CC2)c1` [Example 16, (S)-5-(4-cyclopropyl-1H-imidazol-1-yl)-2-fluoro-N-(5-(hydroxymethyl)-5,6-dihydrobenzo[f][1,2,4]triazolo[4,3-d][1,4]oxazepin-8-yl)-4-methylbenzamide] in this work.
An IC50 of 10.9 nM was found for `Cc1cc(F)c(C(=O)Nc2cccc3c2OC[C@@H](CO)n2nnnc2-3)cc1-n1cnc(C2CC2)c1` [Example 17, (R)-5-(4-cyclopropyl-1H-imidazol-1-yl)-2-fluoro-N-(5-(hydroxymethyl)-5,6-dihydrobenzo[f]tetrazolo[1,5-d][1,4]oxazepin-8-yl)-4-methylbenzamide] in this work.
An IC50 of 11.6 nM was found for `O=C(Nc1cccc2c1OC[C@@H](CO)n1nnnc1-2)c1cc(-n2cnc(C3CC3)c2)ccn1` [Example 18, (R)-4-(4-cyclopropyl-1H-imidazol-1-yl)-N-(5-(hydroxymethyl)-5,6-dihydrobenzo[f]tetrazolo[1,5-d][1,4]oxazepin-8-yl)picolinamide] in this work.
An IC50 of 2.2 nM was found for `C[C@@H]1COc2c(NC(=O)c3cc(-n4cnc(C5CC5)c4)c(N4CCOCC4)cn3)cccc2-c2nnnn21` [Example 19, (R)-4-(4-cyclopropyl-1H-imidazol-1-yl)-N-(5-methyl-5,6-dihydrobenzo[f]tetrazolo[1,5-d][1,4]oxazepin-8-yl)-5-morpholinopicolinamide] in this work.
An IC50 of 6 nM was found for `O=C(Nc1cccc2c1OCC1(CC1)n1nnnc1-2)c1cc(-n2cnc(C3CC3)c2)c(N2CCOCC2)cn1` [Example 20, 4-(4-cyclopropyl-1H-imidazol-1-yl)-5-morpholino-N-(6H-spiro[benzo[f]tetrazolo[1,5-d][1,4]oxazepine-5,1′-cyclopropan]-8-yl)picolinamide] in this work.
An IC50 of 6 nM was found for `O=C(Nc1cccc2c1OCCn1nnnc1-2)c1cc(-n2cnc(C3CC3)c2)c(N2CCOCC2)cn1` [Example 21, 4-(4-cyclopropyl-1H-imidazol-1-yl)-N-(5,6-dihydrobenzo[f]tetrazolo[1,5-d][1,4]oxazepin-8-yl)-5-morpholinopicolinamide] in this work.
An IC50 of 0.6 nM was found for `C[C@H]1COc2c(NC(=O)c3cc(-n4cnc(C5CC5)c4)c(N4CCOCC4)cn3)cccc2-c2nnnn21` [Example 22, (S)-4-(4-cyclopropyl-1H-imidazol-1-yl)-N-(5-methyl-5,6-dihydrobenzo[f]tetrazolo[1,5-d][1,4]oxazepin-8-yl)-5-morpholinopicolinamide] in this work.
An IC50 of 0.9 nM was found for `Cc1cc(F)c(C(=O)Nc2cccc3c2OC[C@H](CO)n2nnnc2-3)cc1-n1cnc(C2CC2)c1` [Example 23, (S)-5-(4-cyclopropyl-1H-imidazol-1-yl)-2-fluoro-N-(5-(hydroxymethyl)-5,6-dihydrobenzo[f]tetrazolo[1,5-d][1,4]oxazepin-8-yl)-4-methylbenzamide] in this work.
An IC50 of 6.2 nM was found for `O=C(Nc1cccc2c1OC[C@H](CO)n1nnnc1-2)c1cc(-n2cnc(C3CC3)c2)ccn1` [Example 24, (S)-4-(4-cyclopropyl-1H-imidazol-1-yl)-N-(5-(hydroxymethyl)-5,6-dihydrobenzo[f]tetrazolo[1,5-d][1,4]oxazepin-8-yl)picolinamide] in this work.
An IC50 of 3.3 nM was found for `O=C(Nc1cccc2c1OCC1(CC1)n1cnnc1-2)c1cc(-n2cnc(C3CC3)c2)c(N2CCOCC2)cn1` [Example 25, 4-(4-cyclopropyl-1H-imidazol-1-yl)-5-morpholino-N-(6H-spiro[benzo[f][1,2,4]triazolo[4,3-d][1,4]oxazepine-5,1′-cyclopropan]-8-yl)picolinamide] in this work.
An IC50 of 8 nM was found for `Cc1cc(F)c(C(=O)Nc2cccc3c2OC[C@H](CF)n2nnnc2-3)cc1-n1cnc(C2CC2)c1` [Example 26, (R)-5-(4-cyclopropyl-1H-imidazol-1-yl)-2-fluoro-N-(5-(fluoromethyl)-5,6-dihydrobenzo[f]tetrazolo[1,5-d][1,4]oxazepin-8-yl)-4-methylbenzamide] in this work.
An IC50 of 6.8 nM was found for `O=C(Nc1cccc2c1OC[C@H](CF)n1nnnc1-2)c1cc(-n2cnc(C3CC3)c2)ccn1` [Example 27, (R)-4-(4-cyclopropyl-1H-imidazol-1-yl)-N-(5-(fluoromethyl)-5,6-dihydrobenzo[f]tetrazolo[1,5-d][1,4]oxazepin-8-yl)picolinamide] in this work.
An IC50 of 4.5 nM was found for `Cc1cc(F)c(C(=O)Nc2cccc3c2OC[C@@H](CF)n2cnnc2-3)cc1-n1cnc(C2CC2)c1` [Example 28, (S)-5-(4-cyclopropyl-1H-imidazol-1-yl)-2-fluoro-N-(5-(fluoromethyl)-5,6-dihydrobenzo[f][1,2,4]triazolo[4,3-d][1,4]oxazepin-8-yl)-4-methylbenzamide] in this work.
